In the NIST ThermoML archive (doi:10.1021/je500513b):
± gives the expanded uncertainty stated by the source.

Assay: mn = molality of the nth substance listed, in mol/kg
Settings: for surface tension liquid-gas: Pendant drop shape; for electrical conductivity: 100 kPa, Liquid, Mettler Toledo inLab 710

CCCCCCCCCCCCCC[N+](C)(C)CCCCCC[N+](C)(C)CCCCCCCCCCCCCC.[Br-].[Br-] + O
Settings | electrical conductivity, 298.15 K [S/m] | electrical conductivity, 303.15 K [S/m] | electrical conductivity, 308.15 K [S/m] | electrical conductivity, 313.15 K [S/m] | electrical conductivity, 318.15 K [S/m] | electrical conductivity, 323.15 K [S/m] | surface tension liquid-gas, 298.15 K [mN/m]
m1 = 1e-05 | – | – | – | – | – | – | 61.8 ± 9.3
m1 = 2e-05 | – | – | – | – | – | – | 56.01 ± 11
m1 = 3e-05 | – | – | – | – | – | – | 52.48 ± 6.4
m1 = 4e-05 | – | – | – | – | – | – | 50.87 ± 4.5
m1 = 5e-05 | – | – | – | – | – | – | 49.03 ± 3.3
m1 = 6e-05 | – | – | – | – | – | – | 47.1 ± 3.9
m1 = 7e-05 | – | – | – | – | – | – | 45.98 ± 2.8
m1 = 8e-05 | – | – | – | – | – | – | 43.05 ± 2.5
m1 = 0.0001 | – | – | – | – | – | – | 42.1 ± 0.87
m1 = 0.000111 | 0.00247 ± 0.00034 | 0.00278 ± 0.00043 | 0.00326 ± 0.00044 | 0.00342 ± 0.00038 | 0.00369 ± 0.0006 | 0.00384 ± 0.00062 | –
m1 = 0.000115 | 0.00256 ± 0.00032 | – | – | – | – | – | –
m1 = 0.000118 | – | 0.00293 ± 0.00042 | 0.00339 ± 0.00042 | 0.00353 ± 0.00043 | 0.00387 ± 0.00057 | 0.004 ± 0.00066 | –
m1 = 0.00012 | 0.00265 ± 0.00031 | – | – | – | – | – | 41.5 ± 0.87
m1 = 0.000125 | 0.00273 ± 0.00031 | 0.00311 ± 0.0004 | 0.00353 ± 0.00041 | 0.00364 ± 0.00048 | 0.00407 ± 0.0006 | 0.00426 ± 0.00063 | –
m1 = 0.00013 | 0.0028 ± 0.00032 | – | – | – | – | – | –
m1 = 0.000133 | – | 0.00327 ± 0.00041 | 0.00369 ± 0.0004 | 0.00386 ± 0.00046 | 0.00431 ± 0.00057 | 0.00452 ± 0.00061 | –
m1 = 0.000136 | 0.00289 ± 0.00033 | – | – | – | – | – | –
m1 = 0.00014 | – | – | – | – | – | – | 40.55 ± 0.76
m1 = 0.000143 | 0.003 ± 0.00031 | 0.00347 ± 0.0004 | 0.00386 ± 0.0004 | 0.00411 ± 0.00048 | 0.00454 ± 0.00057 | 0.00482 ± 0.00063 | –
m1 = 0.00015 | 0.00312 ± 0.00031 | 0.00361 ± 0.00038 | 0.004 ± 0.0004 | 0.00429 ± 0.00053 | 0.00478 ± 0.00058 | 0.00504 ± 0.00063 | –
m1 = 0.000158 | 0.00326 ± 0.00029 | 0.00375 ± 0.00035 | 0.00418 ± 0.00039 | 0.00449 ± 0.00051 | 0.00503 ± 0.00055 | 0.00526 ± 0.00061 | –
m1 = 0.000167 | 0.00338 ± 0.00029 | 0.00391 ± 0.00035 | 0.00438 ± 0.0004 | 0.00467 ± 0.00053 | 0.00529 ± 0.00057 | 0.00554 ± 0.00061 | –
m1 = 0.00017 | – | – | – | – | – | – | 39.84 ± 0.61
m1 = 0.000176 | 0.00352 ± 0.00027 | 0.00407 ± 0.00032 | 0.00458 ± 0.0004 | 0.00494 ± 0.00049 | 0.00559 ± 0.00057 | 0.00586 ± 0.00061 | –
m1 = 0.000188 | 0.00365 ± 0.00025 | 0.00424 ± 0.00029 | 0.00478 ± 0.00035 | 0.00523 ± 0.00047 | 0.00588 ± 0.00052 | 0.00618 ± 0.00058 | –
m1 = 0.000197 | – | 0.00435 ± 0.00027 | 0.00493 ± 0.00034 | 0.00541 ± 0.00042 | 0.00613 ± 0.00051 | 0.00647 ± 0.00056 | –
m1 = 0.0002 | 0.0038 ± 0.00022 | – | – | – | – | – | 39.13 ± 0.42
m1 = 0.000207 | – | 0.0045 ± 0.00027 | 0.00512 ± 0.00033 | 0.00562 ± 0.00041 | 0.00638 ± 0.00049 | 0.00676 ± 0.00055 | –
m1 = 0.000214 | 0.00396 ± 0.00023 | – | – | – | – | – | –
m1 = 0.000218 | – | 0.00464 ± 0.00026 | 0.00529 ± 0.00032 | 0.00582 ± 0.00036 | 0.00665 ± 0.00048 | 0.00702 ± 0.00053 | –
m1 = 0.000231 | 0.00413 ± 0.00022 | 0.00479 ± 0.00024 | 0.00548 ± 0.00028 | 0.00602 ± 0.00034 | 0.00694 ± 0.00041 | 0.00736 ± 0.00049 | –
m1 = 0.00024 | 0.00423 ± 0.00021 | 0.00491 ± 0.00023 | 0.0056 ± 0.00028 | 0.00617 ± 0.00031 | 0.00714 ± 0.00042 | 0.0076 ± 0.0005 | –
m1 = 0.00025 | 0.00434 ± 0.00021 | 0.00502 ± 0.00023 | 0.00573 ± 0.00028 | 0.00633 ± 0.00031 | 0.00734 ± 0.0004 | 0.00784 ± 0.00048 | –
m1 = 0.000261 | 0.00445 ± 0.0002 | 0.00513 ± 0.00021 | 0.00587 ± 0.00027 | 0.00647 ± 0.00028 | 0.00755 ± 0.00039 | 0.00808 ± 0.00042 | –
m1 = 0.000273 | 0.00456 ± 0.00019 | 0.00524 ± 0.00022 | 0.00604 ± 0.00027 | 0.00663 ± 0.00029 | 0.00777 ± 0.00037 | 0.00832 ± 0.00039 | –
m1 = 0.000286 | 0.00469 ± 0.0002 | 0.00539 ± 0.00025 | 0.00621 ± 0.00022 | 0.00681 ± 0.00043 | 0.008 ± 0.00021 | 0.00856 ± 0.00039 | –
m1 = 0.0003 | 0.00481 ± 0.00019 | 0.00556 ± 0.00026 | 0.00639 ± 0.00022 | 0.00704 ± 0.00044 | 0.00822 ± 0.0002 | 0.0088 ± 0.00037 | 38.57 ± 0.38
m1 = 0.0004 | – | – | – | – | – | – | 38.4 ± 0.38

O [water] + CCCCCCCCCCCC[N+](C)(C)CCCCCC[N+](C)(C)CCCCCCCCCCCC.[Br-].[Br-]
Settings | surface tension liquid-gas [mN/m]
298.15 K, m2 = 0 | 71.98 ± 2.2

O [water] + CCCCCCCCCCCC[N+](C)(C)CCCC[N+](C)(C)CCCCCCCCCCCC.[Br-].[Br-]
Settings | surface tension liquid-gas [mN/m]
298.15 K, m2 = 0 | 71.98 ± 2.4
